Like-named read-outs stand apart in the source and are kept apart here.

Consider one substance from US9284580B2 (priority 2010, dated 2016).

The subject of experiment [1] is C. beijerinckii ATCC 55025. From the text:
Cell growth was monitored by measuring the optical density at 600 nm (OD600) of the culture broth.

The subject of another experiment is P. putida. The note with it: several strains of P. putida; cited from earlier work.
The next experiment has as its system S. cerevisiae strains. Conditions: 1% (v/v) butanol; most S. cerevisiae strains; cited from earlier work.
A further experiment has as its system E. coli. The note with it: 2% (v/v) butanol; cited from earlier work.

With butanol, the growth rate reduction is roughly 20% in experiment [1] (1% (v/v) butanol) and roughly 85% in experiment [1] (1.5% (v/v) butanol). The cell growth result in experiment [1] (2% (v/v) butanol, no cell growth even after 10 days incubation) was “completely inhibited”. The tolerated butanol concentration entry in the experiment with P. putida is recorded as “up to 6 % (w/v)”. Moreover, the “relative specific growth rate” value in the experiment with S. cerevisiae strains is recorded as 60%. Besides, the growth entry in the experiment with E. coli is “no growth was observed”.
